# Test system: NMDA-evoked currents in cultured rat embryonic hippocampal neurons (NMDAr)
# Details: 500 µM
sequence,measurement,value
TKRSSRAFRE [EAR7],inhibitory action on NMDA-evoked currents (control peptide),No inhibitory action
